Test results as given in patent US7087629B2, “Heterocyclylaminomethyloxazolidinones as antibacterials” (AstraZeneca AB, priority 1998, dated 2006).
Converted amounts (≈) assume the structure as drawn.

Tests used:
Assay type in all cases: cell-based
[1] = system: Coagulase Negative Staphylococci MS (methicillin sensitive); assay: MIC by agar-dilution, Coagulase Negative Staphylococci MS; conditions: inoculum 10^4 CFU/spot, 37° C., 24 hours
Protocol: (§1) The following results were obtained on a standard in-vitro test system. The activity is described in terms of the minimum inhibitory concentration (MIC) detemined by the agar-dilution technique with an inoculum size of 10^4 CFU/spot. Typically, compounds are active in the range 0.01 to 256 μg/ml.
(§2) Staphylococci were tested on agar, using an inoculum of 10^4 CFU/spot and an incubation temperature of 37° C. for 24 hours—standard test conditions for the expression of methicillin resistance.

[2] = system: Enterococcus faecalis; assay: MIC by agar-dilution, Enterococcus faecalis; conditions: agar with 5% defibrinated horse blood, 10^4 CFU/spot, 37° C., 5% carbon dioxide, 48 hours
Protocol: as §1, with “μg/ml. Streptococci and enterococci were tested on agar supplemented with 5% defibrinated horse blood, an inoculum of 10^4 CFU/spot and an incubation temperature of 37° C. in an atmosphere of 5% carbon dioxide for 48 hours—blood is required for the growth of some of the test organisms.” for “μg/ml.”

[3] = system: Streptococcus pyogenes C203; assay: MIC by agar-dilution, Streptococcus pyogenes C203; conditions: agar with 5% defibrinated horse blood, 10^4 CFU/spot, 37° C., 5% carbon dioxide, 48 hours
Protocol: as §1, with “μg/ml. Streptococci and enterococci were tested on agar supplemented with 5% defibrinated horse blood, an inoculum of 10^4 CFU/spot and an incubation temperature of 37° C. in an atmosphere of 5% carbon dioxide for 48 hours—blood is required for the growth of some of the test organisms.” for “μg/ml.”

[4] = system: Bacillus subtilis; assay: MIC by agar-dilution, Bacillus subtilis; conditions: inoculum 10^4 CFU/spot
Protocol: as §1

[5] = system: Staphylococcus aureus Oxford; assay: MIC by agar-dilution, Staphylococcus aureus Oxford; conditions: inoculum 10^4 CFU/spot, 37° C., 24 hours
Protocol: as §1, §2

[6] = system: Staphylococcus aureus MRQR (methicillin resistant quinolone resistant); assay: MIC by agar-dilution, Staphylococcus aureus MRQR; conditions: inoculum 10^4 CFU/spot, 37° C., 24 hours
Protocol: as §1, §2

[7] = system: Coagulase Negative Staphylococci MR (methicillin resistant); assay: MIC by agar-dilution, Coagulase Negative Staphylococci MR; conditions: inoculum 10^4 CFU/spot, 37° C., 24 hours
Protocol: as §1, §2

[8] = system: Staphylococcus aureus Novb. Res (Novobiocin resistant); assay: MIC by agar-dilution, Staphylococcus aureus Novb. Res; conditions: inoculum 10^4 CFU/spot, 37° C., 24 hours
Protocol: as §1, §2

For `O=C1O[C@@H](CNc2ccon2)CN1c1ccc(N2CCOCC2)c(F)c1` [Example 2, 5(S)-Isoxazol-3-ylaminomethyl-3-(3-fluoro-4-morpholinophenyl)-oxazolidin-2-one], the MIC [1] was 0.5 µg/mL (≈ 1.38 µM), the MIC [2] was 2 µg/mL (≈ 5.52 µM) and the MIC [3] was 1 µg/mL (≈ 2.76 µM). For the same molecule, the MIC [4] was 0.5 µg/mL (≈ 1.38 µM), the MIC [5] was 0.5 µg/mL (≈ 1.38 µM) and the MIC [6] was 1 µg/mL (≈ 2.76 µM). The MIC [7] was 1 µg/mL (≈ 2.76 µM) and the MIC [8] was 1 µg/mL (≈ 2.76 µM).
